How the values were obtained:
[1] = tested on: Puccinia recondita; test: In vivo preventive test on Puccinia recondita (brown rust on wheat); settings: wheat plants, 12 days after contamination
Experimental: In Vivo Preventive Test on Puccinia recondita (Brown Rust on Wheat) […] Wheat plants (“Scipion” variety), sown in starter cups on a 50/50 peat soil pozzolana substrate and grown at 22° C., are treated at the 1 leaf stage (10 cm height) by spraying with the active ingredient prepared as described above. Plants, used as controls, are treated with the mixture of acetone/tween/DMSO/water not containing the active material. After 24 hours, the plants are contaminated by spraying the leaves with an aqueous suspension of Puccinia recondita spores (100 000 spores per mL). The spores are collected from an infected plant and are suspended in water containing 2.5 mL/L of Tween 80 at 10%. […] Grading (% of efficacy) is carried out 12 days after the contamination, in comparison with the control plants.

[2] = tested on: Pyrenophora teres; test: In vivo preventive test on Pyrenophora teres (barley); settings: barley plants, 14 days after contamination
Experimental: In Vivo Preventive Test on Pyrenophora teres (Barley) […] Barley plants (“Plaisant” variety), sown in starter cups on a 50/50 peat soil pozzolana substrate and grown at 22° C., are treated at the 1 leaf stage (10 cm height) by spraying with the active ingredient prepared as described above. Plants, used as controls, are treated with the mixture of acetone/tween/DMSO/water not containing the active material. After 24 hours, the plants are contaminated by spraying the leaves with an aqueous suspension of Pyrenophora teres spores (12 000 spores per mL). The spores are collected from a 12-day-old culture. […] Grading (% of efficacy) is carried out 14 days after the contamination, in comparison with the control plants.

[3] = tested on: Septoria tritici; test: In vivo preventive test on Septoria tritici (wheat); settings: wheat plants, 24 days after contamination
Experimental: In Vivo Preventive Test on Septoria tritici (Wheat) […] Wheat plants (“Scipion” variety), sown in starter cups on a 50/50 peat soil pozzolana substrate and grown at 22° C., are treated at the 1 leaf stage (10 cm height) by spraying with the active ingredient prepared as described above. Plants, used as controls, are treated with the mixture of acetone/tween/DMSO/water not containing the active material. After 24 hours, the plants are contaminated by spraying the leaves with an aqueous suspension of cryopreserved Septoria tritici spores (500 000 spores per mL). The contaminated wheat plants are incubated for 72 hours at 18° C. and at 100% relative humidity, and then for 21 days at 90% relative humidity. Grading (% of efficacy) is carried out 24 days after the contamination, in comparison with the control plants.

[4] = tested on: Sphaerotheca fuliginea; test: In vivo preventive test on Sphaerotheca fuliginea (powdery mildew on cucurbits); settings: gherkin plants, 12 days after contamination
Experimental: In Vivo Preventive Test on Sphaerotheca fuliginea (Powdery Mildew on Cucurbits) […] Gherkin plants (“Vert petit de Paris” variety), sown in starter cups on a 50/50 peat soil-pozzolana substrate and grown at 24° C., are treated at the Z11 cotyledon stage by spraying with the active ingredient prepared as described above. Plants, used as controls, are treated with the mixture of acetone/tween/DMSO/water not containing the active material. After 24 hours, the plants are contaminated by spraying the cotyledons with an aqueous suspension of Sphaerotheca fuliginea spores (100 000 spores per mL). The spores are collected from infected plants. […] Grading (% of efficacy) is carried out 12 days after the contamination, in comparison with the control plants.

[5] = log P by HPLC on a reversed-phase column (C 18), EEC Directive 79/831 Annex V.A8; assay type: physicochemical; settings: HPLC on reversed-phase column (C 18), 40° C., 0.1% aqueous formic acid and acetonitrile, linear gradient 10% to 90% acetonitrile
Outline: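 Compounds are eluted at 40° C using 0.1% aqueous formic acid and acetonitrile in a linear gradient from 10% to 90% acetonitrile. Unbranched alkan-2-ones bearing 3 to 16 carbons with known log P serve as calibrants. Each log P is interpolated linearly from retention times of the two bracketing alkanones.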

[6] = tested on: Uromyces appendiculatus; test: In vivo preventive test on Uromyces appendiculatus (bean rust); settings: bean plants, 11 days after contamination
Experimental: In Vivo Preventive Test on Uromyces appendiculatus (Bean Rust) […] Bean plants (“Saxa” variety), sown in starter cups on a 50/50 peat soil pozzolana substrate and grown at 24° C., are treated at the 2 leaf stage (9 cm height) by spraying with the active ingredient prepared as described above. Plants, used as controls, are treated with the mixture of acetone/tween/DMSO/water not containing the active material. After 24 hours, the plants are contaminated by spraying the leaves with an aqueous suspension of Uromyces appendiculatus spores (150 000 spores per mL). The spores are collected from infected plants and are suspended in water containing 2.5 mL/L of Tween 80 at 10%. […] Grading (% of efficacy) is carried out 11 days after the contamination, in comparison with the control plants.

[7] = tested on: Botrytis cinerea; test: In vivo preventive test on Botrytis cinerea (grey mould); settings: gherkin plants, 4 to 5 days after contamination
Experimental: In Vivo Preventive Test on Botrytis cinerea (Grey Mould) […] Gherkin plants (“Vert petit de Paris” variety), sown in starter cups on a 50/50 peat soil pozzolana substrate and grown at 24° C., are treated at the Z11 cotyledon stage by spraying with the active ingredient prepared as described above. Plants, used as controls, are treated with the mixture of acetone/tween/DMSO/water not containing the active material. After 24 hours, the plants are contaminated by spraying the cotyledons with an aqueous suspension of cryopreserved Botrytis cinerea spores (50 000 spores per mL). The spores are suspended in a nutrient solution composed of 10 g/L of PDB, 50 g/L of D-Fructose, 2 g/L of NH4NO3 and 1 g/L of KH2PO4. The contaminated gherkin plants are incubated at 17° C. and at 90% relative humidity. Grading (% of efficacy) is carried out 4 to 5 days after the contamination, in comparison with the control plants.

[8] = tested on: Alternaria brassicae; test: In vivo preventive test on Alternaria brassicae (leaf spot on radish); settings: 500 ppm of active ingredient; radish plants; 6 days after contamination
Experimental: In Vivo Preventive Test on Alternaria brassicae (Leaf Spot on Radish) […] Radish plants (“Pernod Clair” variety), sown in starter cups on a 50/50 peat soil pozzolana substrate and grown at 17° C., are treated at the cotyledon stage by spraying with the active ingredient prepared as described above. Plants, used as controls, are treated with the mixture of acetone/tween/DMSO/water not containing the active material. After 24 hours, the plants are contaminated by spraying the cotyledons with an aqueous suspension of Alternaria brassicae spores (50 000 spores per mL). The spores are collected from a 15-day-old culture. The contaminated radish plants are incubated at 20° C. and at 100% relative humidity. Grading (% of efficacy) is carried out 6 days after the contamination, in comparison with the control plants.

Row | Structure (SMILES) | logP [5] | Efficacy ([1]; 500 ppm of active ingredient) [%] | Efficacy ([2]; 500 ppm of active ingredient) [%] | Efficacy ([3]; 500 ppm of active ingredient) [%] | Efficacy ([4]; 500 ppm of active ingredient) [%] | Efficacy ([1]; 100 ppm of active ingredient) [%] | Efficacy ([2]; 100 ppm of active ingredient) [%] | Efficacy ([3]; 100 ppm of active ingredient) [%] | Efficacy ([6]; 100 ppm of active ingredient) [%] | Efficacy ([4]; 100 ppm of active ingredient) [%] | Efficacy ([6]; 500 ppm of active ingredient) [%] | Efficacy ([7]; 100 ppm of active ingredient) [%] | Efficacy [8] [%] | Efficacy ([7]; 500 ppm of active ingredient) [%]
1 | Cc1ccc(C2(C)CO2)c(CN(C(=O)c2c(C(F)F)nn(C)c2F)C2CC2)c1 (stereo not shown) [I.5] | 3.04 | 98 | 93 | 97 | 100 |  |  |  |  |  |  |  |  | 
2 | Cn1nc(C(F)F)c(C(=O)N(Cc2cc(F)ccc2C2(C)CO2)C2CC2)c1F (stereo not shown) [I.7] | 2.86 |  |  |  |  | 100 | 97 | 100 | 100 | 94 |  |  |  | 
3 | Cn1nc(C(F)F)c(C(=O)N(Cc2cc(-c3ccco3)ccc2Cl)C2CC2)c1F [I.34] | 3.81 |  |  |  |  |  | 81 |  |  |  |  | 99 |  | 
4 | Cn1ccc(-c2ccc(F)cc2CN(C(=O)c2c(C(F)F)nn(C)c2F)C2CC2)c1 [I.47] | 3.37 |  | 71 |  | 94 |  |  |  |  |  |  |  |  | 
5 | Cn1cc(C(=O)N(Cc2ccccc2-c2cccs2)C2CC2)c(C(F)F)n1 [I.72] | 3.25 |  |  | 80 | 90 |  |  |  |  |  | 83 |  | 70 | 
6 | Cn1nc(C(F)F)c(C(=S)N(Cc2ccccc2-c2ccsc2)C2CC2)c1F [I.73] | 4.21 | 100 | 71 |  | 100 |  |  |  |  |  | 100 |  |  | 100
7 | Cn1nc(C(F)F)c(C(=S)N(Cc2cc(Cl)ccc2-c2cccs2)C2CC2)c1F [I.74] | 4.69 | 94 |  |  | 100 |  |  |  |  |  | 100 |  | 83 | 100
8 | Cn1nc(C(F)F)c(C(=O)N(Cc2cc(-c3cccs3)ccc2Cl)C2CC2)c1F [I.83] | 4.06 |  |  |  |  | 75 | 86 |  | 80 | 98 |  |  |  | 
9 | CC1CC1N(Cc1ccccc1-c1ccsc1)C(=O)c1c(C(F)F)nn(C)c1F (stereo not shown) [I.86] | 3.83 | 98 | 79 | 79 | 98 |  |  |  |  |  | 97 |  |  | 
10 | Cn1cc(C(=O)N(Cc2cc(-c3ccsc3)ccc2Cl)C2CC2)c(C(F)F)n1 [I.93] | 3.59 |  |  |  |  |  | 88 | 86 |  |  |  |  |  | 
11 | Cn1nc(C(F)F)c(C(=O)N(Cc2cc(-c3ccsc3)ccc2Cl)C2CC2)c1F [I.95] | 3.96 |  |  |  |  |  | 88 |  |  | 98 |  |  |  | 
12 | Cc1nn(C)c(C)c1-c1ccccc1CN(C(=O)c1c(C(F)F)nn(C)c1F)C1CC1 [I.114] | 2.52 | 72 | 79 | 100 | 94 |  |  |  |  |  |  |  |  | 
13 | COc1ccsc1-c1ccccc1CN(C(=O)c1c(C(F)F)nn(C)c1F)C1CC1 [I.120] | 3.52 | 100 | 79 | 80 | 100 |  |  |  |  |  | 100 |  |  | 
14 | COc1ccsc1-c1ccc(Cl)cc1CN(C(=O)c1c(C(F)F)nn(C)c1F)C1CC1 [I.121] | 3.99 | 94 | 86 | 80 | 100 |  |  |  |  |  |  |  |  | 
15 | Cn1cc(C(=O)N(Cc2ccccc2-c2ccc(Cl)s2)C2CC2)c(C(F)F)n1 [I.140] | 3.87 |  |  | 96 |  |  |  |  |  |  | 73 |  | 90 | 
16 | Cn1nc(C(F)F)c(C(=O)N(Cc2cc(-c3ccc(Cl)s3)ccc2Cl)C2CC2)c1F [I.143] | 4.83 | 88 | 79 | 100 | 100 |  |  |  | 93 |  |  |  |  | 98

Second part, led by results:

Row | logP [5] | Structure (SMILES) | Efficacy ([1]; 500 ppm of active ingredient) [%] | Efficacy ([2]; 500 ppm of active ingredient) [%] | Efficacy ([3]; 500 ppm of active ingredient) [%] | Efficacy ([4]; 500 ppm of active ingredient) [%] | Efficacy ([1]; 100 ppm of active ingredient) [%] | Efficacy ([2]; 100 ppm of active ingredient) [%] | Efficacy ([3]; 100 ppm of active ingredient) [%] | Efficacy ([6]; 100 ppm of active ingredient) [%] | Efficacy ([4]; 100 ppm of active ingredient) [%] | Efficacy ([6]; 500 ppm of active ingredient) [%] | Efficacy ([7]; 100 ppm of active ingredient) [%] | Efficacy [8] [%] | Efficacy ([7]; 500 ppm of active ingredient) [%]
17 | 3.33 | Cn1nc(C(F)F)c(C(=O)N(Cc2cc(F)ccc2-c2ccoc2)C2CC2)c1F [I.27] | 100 | 93 | 80 | 100 |  |  |  |  |  | 100 |  |  | 
18 | 3.55 | Cn1nc(C(F)F)c(C(=O)N(Cc2ccccc2-c2ccsc2)C2CC2)c1F [I.67] | 100 | 79 | 97 | 100 |  |  |  |  |  | 100 |  |  | 
19 | 4.11 | Cn1nc(C(F)F)c(C(=O)N(Cc2cc(Cl)ccc2-c2cccs2)C2CC2)c1F [I.68] | 94 |  | 83 | 94 |  |  |  |  |  | 100 |  | 71 | 
20 | 4.51 | Cc1csc(-c2ccc(Cl)cc2CN(C(=O)c2c(C(F)F)nn(C)c2F)C2CC2)c1 [I.103] | 95 | 95 | 95 | 100 |  |  |  |  |  | 94 |  |  | 98
21 | 4.32 | Cc1ccc(-c2coc3ccccc23)c(CN(C(=O)c2c(C(F)F)nn(C)c2F)C2CC2)c1 [I.134] |  |  |  |  |  | 71 | 79 | 77 | 90 |  |  |  | 
22 | 3.92 | Cn1nc(C(F)F)c(C(=O)N(Cc2ccccc2-c2ccsc2Cl)C2CC2)c1F [I.138] | 94 | 79 | 100 | 100 |  |  |  |  |  | 100 |  |  | 100
23 | 4.92 | Cn1nc(C(F)F)c(C(=O)N(Cc2ccc(Cl)cc2-c2csc3ccccc23)C2CC2)c1F [I.159] |  |  | 88 | 100 |  | 75 |  |  |  | 84 |  |  | 100

Reference: patent US10125126B2, “N-cycloalkyl-N-[(heterocyclylphenyl)methylene]-(thio)carboxamide derivatives” (BAYER CROPSCIENCE AG, priority 2012, dated 2018)
